Laboratory results: paper PMC12751141, “Disrupting α-Synuclein–ClpP interaction restores mitochondrial function and attenuates neuropathology in Parkinson’s disease models” (Molecular Neurodegeneration, 2025)

What was measured:
[1] = tested on: mThy1-hSNCA mice (substantia nigra / midbrain); assay: Brain immunostaining / immunohistochemistry in mThy1-hSNCA mice; type: in vivo, mouse; conditions: 3 mg/kg/day s.c.
Experimental: C57BL/6 N-Tg (Thy1-SNCA)15Mjff/J (JAX: 017682) breeders (C57Bl/6NJ genetic background) were purchased from Jackson Laboratories. The mice were mated, bred, and genotyped in the animal facility of Case Western Reserve University. All mice were maintained at a 12-hour light/dark cycle (on 6 am, off 6 pm). All randomization and peptide treatments in mThy1-hSNCA mice were prepared by an experimenter not associated with the behavioral and neuropathology analysis. Only male mice were used in the study. mThy1-hSNCA transgenic mice and their age-matched WT littermates were implanted with a 28-day subcutaneous osmotic pump (Alzet, Cupertino CA, Model 2004) containing either TAT control peptide or CS2 peptide, which delivered the peptides at indicated rate (1 or 3 or 10 mg/kg/day). The pump was replaced once every four weeks. All mice were sacrificed at age of 10-month for neuropathology assessment.
For immunofluorescence staining of mouse brain sections, mice were deeply anesthetized and transcardially perfused with 4% paraformaldehyde in PBS. Brain sections were washed in PBS 3 times and subjected for antigen retrieval in 0.01 M sodium citrate buffer with 0.05% TWEEN-20, followed by permeation with 0.2% Triton X-100 in PBS at room temperature for 10 min. Sections were then blocked with 10% normal goat serum in PBS and incubated with primary antibodies overnight at 4 °C and then stained with secondary antibodies. Images of the staining were acquired using Fluoview (FV3000) confocal microscope (Olympus).
Frozen brain sections (20 μm, coronal) were washed in PBS 3 times and subjected for antigen retrieval in 0.01 M sodium citrate buffer with 0.05% TWEEN-20. After washing 3 times in TBS, sections were then incubated in 3%H2O2/w methanol for 30 min at room temperature to quench endogenous peroxidase. After washing in TBS, sections were blocked in 10% normal goat serum with 1XTBST for one hour at room temperature and incubated with anti-pS129-αSyn (ab51253, clone EP1536Y, abcam) or anti- αSyn aggregates (MABN389, clone 5G4, Millipore) antibody in TBST overnight. Secondary antibody and DAB staining were provided by the IHC Select HRP/DAB kit (DAB150, Millipore). Hematoxylin QS (H-3404, Vector laboratory) was used to stain nucleus. The intensity of αSyn was conducted using Fiji ImageJ software. The same image exposure times and threshold settings were used for all sections from all treatment groups. Quantitation was performed blinded to the experimental groups.
Fig. 7 CS2 treatment is protective in mThy1-hSNCA mouse model of PD. (A) Experimental schematic of CS2 treatment in mThy1-hSNCA (Thy1) mouse model of PD: TAT or CS2 peptide was administered (3 mg/kg/day) via subcutaneous osmotic pump (O.P.) in Thy1 mice and their wild-type (WT) littermates starting from age of 4-month till 10-month. […] (D) Representative images of pS129-αSyn staining in substantia nigra of WT and Thy1 mice treated with TAT or CS2 peptide (scale bar = 100 μm). […] (G) Representative images of ClpP and tyrosine […] (TH) staining on the brain coronal sections from TAT or CS2-treated Thy1 mice and their WT littermates (scale bar = 100 μm). […] (H) Representative images of IBA1 and GFAP staining in the midbrain of TAT or CS2 treated Thy1 mice and their WT littermates (SN: substantia nigra) (scale bar = 180 μm).
(B) Representative images of αSyn aggregates staining (5G4) in substantia nigra of TAT or CS2 treated Thy1 mice (scale bar = 40µm).

[2] = tested on: A53T-αSyn iPSC-derived neurons; assay: Mitochondrial function (Mito-SOX, TMRM, ATP) in A53T-αSyn iPSC-derived neurons; type: cell-based, human
From the text: PD iPS cells lines (αSyn A53T, NN0004337, donor) and its isogenic corrected control line (NN0004344) were obtained from RUCDR Infinite Biologics. The iPS cells were differentiated into dopaminergic neuron-enriched neuronal culture with the protocol described previously. Briefly, iPS cell colonies were disassociated with accutase (Invitrogen), plated onto 6-well plates pre-coated with 2.5% Matrigel (BD Biosciences) and allowed to reach 80% confluence in mTeSR medium (Stem Cell Technology). For the first 10 days, cells were treated with SB431542 (10 µM; Tocris Bioscience) and Noggin (100 ng/ml) in Neural Media (NM) with FGF2 ([…]) and EGF ([…]). NM media contained: Neurobasal and DMEM/F12 (1:1), B-27 Supplement Minus Vitamin A (50×, Invitrogen), N2 Supplement (100X, Invitrogen), GlutaMAX (Invitrogen, 100×), 100 units/ml penicillin and 100 µg/ml streptomycin (Fisher); for the next 4 days, cells were treated with human recombinant Sonic hedgehog (SHH, 200 ng/ml) in neuronal differentiation medium. […]
Cells cultured on coverslips or 24-well plates were washed with DPBS and then incubated with 5 µM Mito-SOX™ Red (Invitrogen, M36008), a mitochondrial superoxide indicator, for 10 min at 37 °C. For cells cultured on coverslips, the images were visualized by microscope, and quantification of images was then carried out using NIH ImageJ software. At least 100 cells per group were counted in the analysis.
Cells cultured on coverslips or 24-well plates were washed with DPBS and then incubated with 0.25 µM Tetramethylrhodamine, methyl ester (TMRM) (Invitrogen, T668), for 20 min at 37 °C. For cells cultured on coverslips, the images were visualized by microscope, and quantification of images was then carried out using NIH Fiji ImageJ software. At least 100 cells per group were counted in the analysis.
Cells were seeded in 24-well plates, followed by the indicated treatment. The ATP level in each well was determined using the ATP assay kit according to the manufacturer’s procedures (Cayman Chemical, 700410).

[3] = midbrain, mThy1-hSNCA, n = 3 mice/group

CC(C)[C@H](NC(=O)CNC(=O)CNC(=O)CCCCCNC(=O)[C@H](CCCNC(=N)N)NC(=O)[C@H](CCCNC(=N)N)NC(=O)[C@H](CCCNC(=N)N)NC(=O)[C@H](CCC(N)=O)NC(=O)[C@H](CCCNC(=N)N)NC(=O)[C@H](CCCNC(=N)N)NC(=O)[C@H](CCCCN)NC(=O)[C@H](CCCCN)NC(=O)[C@H](CCCNC(=N)N)NC(=O)CNC(=O)[C@@H](N)Cc1ccc(O)cc1)C(=O)N[C@H](C(=O)N[C@H](C(=O)N[C@@H](C)C(=O)O)[C@@H](C)O)C(C)C [CS2, TAT-C6-GGVVTA]
ClpP level in midbrain DA neurons ([1]; TH+ neurons, immunostaining, n = 3 mice/group): restored by CS2
IBA1 and GFAP in WT mice ([1]; WT mice): no effect in WT mice
GFAP (astrocyte) intensity [1, 3]: significantly attenuated both markers
IBA1 (microglia) intensity [1, 3]: significantly attenuated both markers
pS129-αSyn accumulation in SN ([1]; n = 3 mice/group): reduced by CS2 treatment
αSyn aggregates in SN (5G4) ([1]; n = 3 mice/group): reduced by CS2 treatment
mitochondrial ROS, iPSC neurons ([2]; Mito-SOX, n = 3): reduced mitochondrial ROS
mitochondrial membrane potential, iPSC neurons ([2]; TMRM, n = 3): rescued mitochondrial membrane potential
ATP content, iPSC neurons ([2]; n = 6): rescued mitochondrial membrane potential and ATP content
